Data from US9174985B2, “Salts of 7-(2,3-di-p-tolyl-7,8-dihydropyrido[2,3-b]pyrazin-5(6H)-yl)heptanoic acid as IP receptor agonists” (Novartis AG, priority 2012, dated 2015).
Where a name gives a salt, the structure may show the parent alone.

Assays:
[1] = stability (physical stability, stability under light); format: physicochemical; settings: for stability: free form, under light
[2] = pH of a 1% solution/suspension in water; format: physicochemical; settings: 10 mg salt in 1 mL water, ultrasound about 5 min, stirred one hour at RT, batch B, 24.3-25.2° C.
Method: A mixture of 10 mg salt and 1 mL water was treated about 5 min with ultrasound. Afterwards, the mixture was stirred for one hour at RT followed by pH measurement.

solubility = format: physicochemical; settings: free form, in water
dissolution rate = format: physicochemical; settings: compared to the free form
rats = settings: cited from earlier work
former smokers = settings: oral; cited from earlier work
[3] = system: human airway epithelial cells; settings: human airway epithelial cells in vitro; cited from earlier work
β2-adrenoceptor = β2-adrenoceptor (Homo sapiens, UniProt P07550); settings: cited from earlier work
[4] = listed as free form of 7-(2,3-di-p-tolyl-7,8-dihydropyrido[2,3-b]pyrazin-5(6H)-yl)heptanoi

β2-adrenoceptor, sequence (P07550 whole entry, species assumed): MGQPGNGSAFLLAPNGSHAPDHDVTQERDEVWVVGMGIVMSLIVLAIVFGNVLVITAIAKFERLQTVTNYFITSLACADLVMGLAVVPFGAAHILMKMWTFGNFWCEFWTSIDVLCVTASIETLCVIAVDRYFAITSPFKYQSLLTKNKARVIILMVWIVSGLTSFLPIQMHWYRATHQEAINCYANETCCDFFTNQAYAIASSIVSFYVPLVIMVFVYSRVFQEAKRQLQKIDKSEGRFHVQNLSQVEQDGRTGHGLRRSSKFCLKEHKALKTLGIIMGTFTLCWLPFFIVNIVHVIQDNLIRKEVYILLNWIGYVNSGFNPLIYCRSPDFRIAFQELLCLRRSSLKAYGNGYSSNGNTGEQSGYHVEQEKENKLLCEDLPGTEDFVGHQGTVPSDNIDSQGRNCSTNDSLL

Cc1ccc(-c2nc3c(nc2-c2ccc(C)cc2)N(CCCCCCC(=O)O)CCC3)cc1 [Example 2, 7-(2,3-di-p-tolyl-7,8-dihydropyrido[2,3-b]pyrazin-5(6H)-yl)heptanoate xinafoate]
photostability [1]: good
pH of a 1% solution/suspension in water [2]: 6.46

Cc1ccc(-c2nc3c(nc2-c2ccc(C)cc2)N(CCCCCCC(=O)O)CCC3)cc1 [7-(2,3-di-p-tolyl-7,8-dihydropyrido[2,3-b]pyrazin-5(6H)-yl)heptanoic acid]
solubility (solubility): poorly soluble in water
solubility (solubility; [4]): poor solubility
stability [1]: low stability under light
stability [1, 4]: poor solubility and stability

Cc1ccc(-c2nc3c(nc2-c2ccc(C)cc2)N(CCCCCCC(=O)O)CCC3)cc1 [Example 4, 7-(2,3-di-p-tolyl-7,8-dihydropyrido[2,3-b]pyrazin-5(6H)-yl)heptanoate hydrochloride]
pH of a 1% solution/suspension in water ([2]; hydrochloride): 2.3

CS(=O)(=O)O.Cc1ccc(-c2nc3c(nc2-c2ccc(C)cc2)N(CCCCCCC(=O)O)CCC3)cc1 [mesylate salt of 7-(2,3-di-p-tolyl-7,8-dihydropyrido[2,3-b]pyrazin-5(6H)-yl)heptanoic acid]
dissolution rate (dissolution rate): significantly higher dissolution rate compared to the free form

CC#CCC(C)[C@H](O)/C=C/[C@@H]1[C@H]2c3cccc(CCCC(=O)O)c3O[C@H]2C[C@H]1O (mixture of isomers) [Beraprost]
development of experimental cigarette smoke-induced emphysema (rats): protected

CC#CCC(C)[C@H](O)/C=C/[C@@H]1[C@H]2C/C(=C/CCCC(=O)O)C[C@H]2C[C@H]1O (stereo partly shown) [iloprost]
endobronchial dysplasia (former smokers): significantly improved

Cc1ccc(-c2nc3c(nc2-c2ccc(C)cc2)N(CCCCCCC(=O)[O-])CCC3)cc1.[Na+] [Example 3, 7-(2,3-di-p-tolyl-7,8-dihydropyrido[2,3-b]pyrazin-5(6H)-yl)heptanoate sodium]
physical stability [1]: good

O=C(O)c1cccc(/C=C2/C[C@@H]3[C@@H](/C=C/[C@@H](O)C4CCCCC4)[C@H](O)C[C@@H]3O2)c1 [Taprostene]
generation of the CD8+ T cell chemoattractants CXCL9 and CXCL10 [3]: suppressed

CCc1cc2c(cc1CC)CC(NC[C@H](O)c1ccc(O)c3[nH]c(=O)ccc13)C2 [indacaterol, (R)-5-[2-(5,6-diethyl-indan-2-ylamino)-1-hydroxyethyl]-8-hydroxy-1H-quinolin-2-one]
duration of action (β2-adrenoceptor): over 24 hours
onset of action (β2-adrenoceptor): about 10 minutes

Cc1ccc(-c2nc3c(nc2-c2ccc(C)cc2)N(CCCCCCC(=O)O)CCC3)cc1 [Example 1, 7-(2,3-di-p-tolyl-7,8-dihydropyrido[2,3-b]pyrazin-5(6H)-yl)heptanoate sulfate]
physical stability [1]: good
pH of a 1% solution/suspension in water ([2]; sulfate): 1.78
